Experimental data taken from patent publication US20130217761A1 (Laboratorio Catarinense S/A, priority 2009, published 2013).

Key:
isolated rabbit heart [1] = assay: re-induction of ventricular fibrillation after reversal (protective effect), isolated rabbit heart; conditions: new attempt to induce ventricular fibrillation 5 minutes after reversal
Method: In order to carry out the experiments, twenty-seven male and female white New Zealand rabbits, weighing 2.5-3.5 kg, received 100 Ul/kg of intravenous heparin and were killed by cervical displacement.
The thorax was rapidly opened by middle-sized incision, and the sternum beaten back for complete exposure of the inside of the thorax. The pericardium was removed and the rising part of the aorta was isolated and repaired with a cotton thread 3-0. A metallic cannula was then inserted and fixed to the proximal portion of the aorta, retrograde perfusion of oxygenated Krebs-Henseleit solution was initiated and heated up to 37° C. with constant flow of 13 mL/minute, kept by a continuous-infusion pump, Harvard Apparatus model RS232. The cannula tip was positioned quite close to the aortic valve to permit adequate coronary perfusion.
The heart was then removed and suspended through the cannula in a classic Langenhorff preparation. […]
Two pairs of electrodes (Monicron 2-O) were saturated on the LV: one at the tip, called proximal (P) and the other at the branching of front descending coronary artery branching with the first diagonal, called distal (D). […] The cardiac frequency was determined by measuring the interval between two consecutive electrograms and transformed into beats per minute (bpm). […]

isolated rabbit heart [2] = assay: reversal of sustained electrically induced ventricular fibrillation, isolated rabbit heart (Langendorff preparation); conditions: added to perfusate
Method: The thorax was rapidly opened by middle-sized incision, and the sternum beaten back for complete exposure of the inside of the thorax. […] A metallic cannula was then inserted and fixed to the proximal portion of the aorta, retrograde perfusion of oxygenated Krebs-Henseleit solution was initiated and heated up to 37° C. with constant flow of 13 mL/minute, kept by a continuous-infusion pump, Harvard Apparatus model RS232. The cannula tip was positioned quite close to the aortic valve to permit adequate coronary perfusion.
The heart was then removed and suspended through the cannula in a classic Langenhorff preparation. The Krebs Henseleit composition used was: 115 mM NaCl; 5.4 mM KCL; 1.25 mM CaCl2; 25 mM NaHCO3; 1.2 mM MgSO4; 1.5 mM NaH2PO4 and 11 nM glucose. […]

SMILES | prevention of re-induction of ventricular fibrillation by electric stimulus (isolated rabbit heart [1]) | reversal of sustained ventricular fibrillation (in words) (isolated rabbit heart [2])
CCN(CC)CC(=O)Nc1c(C)cccc1C [lidocain] | does not prevent the reinduction | 
CC(C)NCC(O)COc1cccc2ccccc12 (stereo not drawn) [propranolol] |  | do not have any effect
CCCCc1oc2ccccc2c1C(=O)c1cc(I)c(OCCN(CC)CC)c(I)c1 [amiodarone] |  | do not have any effect
